Experimental data: patent US7122173B2, “Agent for the treatment of bladder irritative symptoms accompanied by benign prostatic hyperplasia” (Kyowa Hakko Kogyo Co., Ltd., priority 2001, dated 2006)

System: slowly-inactivating A-type K^+ channel
Experiment: Voltage clamp, slowly-inactivating A-type K+ currents in Fast Blue-labeled capsaicin-sensitive bladder afferent neurons
Type: cell-based, rat
Conditions: Compound 1 1.0 × 10^−6 mol/L
Procedure: Experiments were performed on adult female Sprague Dawley rats. First and second series of the experiments were performed, respectively, in unidentified DRG neurons and a specific population of DRG neurons innervating the urinary bladder. The population of DRG neurons that innervate the urinary bladder were labeled by retrograde axonal transport of the fluorescent dye, Fast Blue (4% w/v) (Polyloy, Gross Umstadt, Germany), injected into the wall of the bladder in halothane-anesthetized animals 7 days before the dissociation. The dye was injected with a 28 gauge needle at three to six sites on the dorsal surface of the organ (5–6 μL per site, total volume of 20–30 μL). Each injection site was washed with saline to minimize contamination of adjacent organs with the dye.
Freshly dissociated neurons from DRG were prepared from halothane-anesthetized animals. […]
Dye-labeled primary afferent neurons that innervate the urinary bladder were identified using an inverted phase-contrast microscope (Nikon, Tokyo, Japan) with fluorescent attachments (UV-1A filter; excitation wavelength, 365 nm). […] All recordings were made with an Axopatch-1D patch-clamp amplifier (Axon Instruments, Foster City, Calif.), and data were acquired and analyzed by PCLAMP software (Axon Instruments).
In voltage-clamp recordings, outward K^+ currents and inward Na^+ currents were measured. […]

C[C@](O)(C(=O)Nc1cccc2c1C(=O)c1sccc1CS2(=O)=O)C(F)(F)F [Compound 1, (S)-(+)-N-(5,5-dioxido-10-oxo-4,10-dihydrothieno[3,2-c][1]benzothiepin-9-yl)-3,3,3-trifluoro-2-hydroxy-2-methylpropanamide]
A-type IK (HP: −120 mV) − (HP: −40 mV), normalized to control: 1.26 ± 0.03
